Data reported in US12624031B2, “Inhibitors of ubiquitin specific peptidase 22 (USP22) and uses thereof for treating diseases and disorders” (Northwestern University, priority 2022, dated 2026).

Experiments:
[1] = biological target: human GST-USP22 with Sgf11, Sgf73 1-105 and Sus1 (Homo sapiens, UniProt Q9UPT9); experiment: in vitro USP22 deubiquitination assay (re-constructed deubiquitination module); type: biochemical; conditions: customized deubiquitination assay, human GST-USP22 with Sgf11, Sgf73 1-105, Sus1; read-out: IC50 in suppressing USP22 in vitro catalytic activity
Description: (A) The chemical structure of S02-S106 11-((4-cyanophenyl)amino)-7,8,9,10-tetrahydrobenzo(4,5)imidazole[1,2-b]isoquinoline-6-carbonitrile, (B & C) The efficacy of USP22i-S02 analogs in inhibiting USP22 catalytic activity was determined in vitro. The representative data from a triplicate analysis of S02-S106 with S02 as a control are shown (B). The IC50 of USP22i-S02 analogs in suppressing USP22 in vitro catalytic activity are shown (C). NA, not available.
We purchased human recombinant Sgf11 and Sgf73 1-105 and Sus1 proteins from R&D Systems Inc, and re-constructed the deubiquitination activity with our human GST-USP22. The USP22 customized deubiquitination was optimized and used for in vitro screening the activity of synthetic USP22i-s02 analogs with the USP22i-s02 as a control (FIG. 12).

[2] = system: PD-L1 expression in A549 cells; experiment: PD-L1 expression in A549 cells by flow cytometry; type: cell-based, human; conditions: Homo sapiens; A549 cells, 48 hours; unit inferred; read-out: IC50 inhibition of PD-L1 expression
Description: FIG. 13: The effects of USP22i-S02-S106 on suppression of PD-L1 expression on human lung adenocarcinoma cells. Human […] lung adenocarcinoma A549 cells were treated with S02-S106 or its lead compound S02 for 48 hours. The expression levels of PD-L1 were determined by flow cytometry. (A) Representative flow data from A549 cells treated with 2 μM S02-S106 or with 15 μM S02 are shown. DMSO treated cells were used as an untreated control and USP22 CRISPR knockout A549 cells were used as a positive control. (B) The dose-dependent inhibition of PD-L1 expression in A549 cells by S02-S106 with USP22i-S02 as a control. Data were normalized with PD-L1 expression levels in USP22-KO cells as 100% of USP22 inhibition as shown in A. (C) Inhibition of PD-L1 expression in WT and USP22-null A549 cells by S02-S106.
We then used PD-L1 expression level as a measurement to evaluate the inhibitory efficacy of USP22 by S02-S106.
To determine the specificity of USP22i-S02-S106, we treated the WT and USP22-null lung cancer cells.

naïve mice = experiment: toxicity and Treg phenotype in naïve mice; type: in vivo
Description: B, FOXP3 MFI in WT and 22KO of Treg cells after treatment with 20 μg/kg of Usp22i-S02 in vivo (n=3). C, Representative flow cytometry plot of FOXP3+CD25+MFI of CD4+ peripheral cells of mice treated with 20 μg/kg of Usp22i-S 02 relative to control (n=5). D, Graphical representation of Foxp3 MFI upon Usp22i-S02 administration (n=5). E, Tumor growth curve of LLC1 cells subcutaneously injected in the flank of WT mice with or without the addition of 20 mg/kg/time of the Usp22 inhibitor starting at day 15, in 100 μL of oil (n=4). F-G, Representative flow cytometry plot and graphical representation of % infiltration of CD4+ and CD8+ T cells within the tumor (n=4). H, Representative histogram plot and graphical representation of intratumoral Treg (itTreg) Foxp3 MFI (n=4). I, MFI of itTreg suppressive markers (n=3-4). J, Percent Foxp3+IFNg+itTreg cells in control and Usp22-S02 treated mice (n=3-4). B, D-E, G, H-I Two-way ANOVA with multiple comparisons between rows was performed to determine statistical significance. J, Unpaired two tailed T test was performed to determine significance. All data are presented as mean±stdev. NS, not significant. *P<0.05, **P<0.01, ***P<0.001, ****P<0.0001.
A, Body weight of Usp22i-S02 treated mice verses DMSO treated controls over the course of treatment (n=4). A-F. Injections were twice a day for 3 consecutive days at 10 μg/kg (n=4). B, Percent of cell populations in naïve mice treated with Usp22i-S02 relative to DMSO control (n=3-4). […] D, Percent CD44^hiCD62L^lo in T cell populations gated on CD45+ cells in naïve mice treated with Usp22i-S02 relative to DMSO control (n=3). E, Percent Annexin+PI+ T cells gates on CD45+ cells in naïve mice treated with Usp22i-S02 relative to DMSO control (n=4). F-H, Organ toxicity panel (VetScan VS2 Comprehensive Diagnostic Rotor lot 1061AA2) of naïve mice treated with Usp22i-S02 relative to DMSO control (n=2-3). I, Growth curve of subcutaneously injected LLC1 in WT mice treated with Usp22i-S02 at 10 μg/kg (n=5-10). I-Q, Injections were twice a day for 5 consecutive days at 10 μg/kg. J, Weights of resected tumors at day 16 from I (n=10). K-L, Representative flow plot and graphical representation of infiltrating T cells gated on CD45+ cells (n=5). M-P, Characterization of intratumoral CD8+ T cells frome mice treated with Usp22i-S02 (n=3-5). Q, Percent of intratumoral Treg cells from mice treated with Usp22i-S02 verses DMSO control, gated on CD4+Foxp3+ from mice (n=5). A-E, I and L, Two-way ANOVA with Sidaks's multiple comparisons between rows relative to control was performed to determine statistical significance. F-H, J, and M-Q, Two-tailed unpaired t-test was performed to determine statistical significance. All data are presented as mean±stdev. NS, not significant. *P<0.05, **P<0.01, ***P<0.001, ****P<0.0001.
An important aspect of a potential immunotherapeutic is its antitumor functionality paired with low immune toxicity. To determine the toxicity of Usp22i-S02 in vivo, we first determined its effects in naïve mice.

Sequence of human GST-USP22 with Sgf11, Sgf73 1-105 and Sus1 (Q9UPT9 whole entry): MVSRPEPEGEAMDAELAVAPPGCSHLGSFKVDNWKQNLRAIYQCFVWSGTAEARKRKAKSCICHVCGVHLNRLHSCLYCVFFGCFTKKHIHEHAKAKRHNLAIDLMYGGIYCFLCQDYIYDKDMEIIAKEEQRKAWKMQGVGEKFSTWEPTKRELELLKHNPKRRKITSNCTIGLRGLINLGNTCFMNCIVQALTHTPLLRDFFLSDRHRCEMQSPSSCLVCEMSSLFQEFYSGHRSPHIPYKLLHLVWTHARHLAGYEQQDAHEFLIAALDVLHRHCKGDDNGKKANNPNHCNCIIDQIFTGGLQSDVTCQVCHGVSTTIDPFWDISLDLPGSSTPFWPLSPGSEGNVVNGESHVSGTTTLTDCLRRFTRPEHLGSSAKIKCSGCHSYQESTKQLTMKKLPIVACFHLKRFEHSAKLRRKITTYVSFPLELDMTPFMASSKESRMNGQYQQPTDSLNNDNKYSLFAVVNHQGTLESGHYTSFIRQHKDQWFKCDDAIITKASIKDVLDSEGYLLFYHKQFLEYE
Sequence of human GST-USP22 with Sgf11, Sgf73 1-105 and Sus1 (Q14CW9 whole entry partner): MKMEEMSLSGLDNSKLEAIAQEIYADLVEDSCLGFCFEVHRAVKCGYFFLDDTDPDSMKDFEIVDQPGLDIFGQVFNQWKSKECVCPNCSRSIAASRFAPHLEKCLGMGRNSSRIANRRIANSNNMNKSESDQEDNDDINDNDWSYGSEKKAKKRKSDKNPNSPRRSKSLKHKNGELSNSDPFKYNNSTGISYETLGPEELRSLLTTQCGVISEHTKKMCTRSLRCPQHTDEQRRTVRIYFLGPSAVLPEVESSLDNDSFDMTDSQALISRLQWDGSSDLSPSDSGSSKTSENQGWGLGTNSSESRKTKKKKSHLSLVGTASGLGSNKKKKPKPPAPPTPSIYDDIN
Sequence of human GST-USP22 with Sgf11, Sgf73 1-105 and Sus1 (O15265 1-105 partner limits assumed): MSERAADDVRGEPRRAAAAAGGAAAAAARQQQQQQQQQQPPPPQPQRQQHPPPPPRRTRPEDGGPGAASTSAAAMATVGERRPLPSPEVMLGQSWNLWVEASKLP
Sequence of human GST-USP22 with Sgf11, Sgf73 1-105 and Sus1 (Q9NPA8 whole entry partner): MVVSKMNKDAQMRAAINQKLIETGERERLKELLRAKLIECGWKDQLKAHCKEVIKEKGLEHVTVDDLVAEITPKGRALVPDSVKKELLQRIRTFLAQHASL

For N#Cc1c2c(c(Nc3ccccc3)n3c1nc1ccccc13)CCCC2 [USP22i-S02, 11-anilino-7,8,9,10-tetrahydrobenzimidazo[1,2-b]isoquinoline-6-carbonitrile], which IC50 [1] is on record?
The IC50 was roughly 4.7 µM.

And the IC50 [2]?
Its IC50 is 13.7 µM.

And the “FOXP3 MFI in Usp22-KO mice” value (naïve mice; Usp22-KO mice, 20 μg/kg)?
Its value is “no additional decrease to FOXP3 MFI”.

What about the “FOXP3 MFI in Treg cells from spleen and lymph nodes” value (naïve mice; WT mice, 20 μg/kg) of the same compound?
The value was “significant drop in FOXP3 MFI”.

What about the Treg cell death (naïve mice; naïve mice) of the same compound?
The Treg cell death was “significantly increased”.

And the Treg percentage (naïve mice; naïve mice)?
Its Treg percentage is “decrease in Treg percentage”.

What about the Treg proliferation (naïve mice; naïve mice) of the same compound?
The Treg proliferation was “also increased”.

What about the “organ toxicity (comprehensive tissue panel)” value (naïve mice; naïve mice versus DMSO control) of the same compound?
The value was “no organ toxicity differences”.

What about the “weights, B cell and Teff cell percentages and proliferation, Teff cell activation” value (naïve mice; naïve mice versus DMSO-treated control, twice a day for 3 days at 10 μg/kg) of the same compound?
Its value is “little alteration”.
